Where “and” joins values, the source holds several entries; their conditions need not be identical. Identical values can stand only once.
Molecular target: T1, iNOS (Mus musculus, UniProt P29477)
T1 construct: tracer to detect iNOS expression in mice injected with lipopolysaccharide (LPS) to induce brain inflammation; from tissue; host or cells: brain of living C57BL/6 mice (LPS-induced); fixed brain sections for IHC
Assay: In vivo brain PET/MR imaging of LPS-induced iNOS expression (SUV, SUR, AUC) incl. aminoguanidine blocking
Parameters: species or system C57BL/6 mice
Protocol: For the imaging experiments, twelve C57BL/6 mice were injected i.p. with 0.9% NaCl, eighteen mice were injected i.p. with 0.1 mL of LPS in saline (5 mg/kg), and six mice were injected i.p. with aminoguanidine (Sigma-Aldrich) 30 min prior to 5 mg/kg LPS. In vivo imaging was performed 3 h or 24 h after injection of LPS; then, the mice were immediately humanely euthanized and the brains were removed for immunostaining.
Mice (n = 30) were anesthetized with 2% isoflurane (in oxygen) and injected with [^18F]FBAT (11.1 MBq; 0.3 mCi) via the tail vein. Dynamic PET images were obtained in fully three-dimensional list mode for 30 min using a small animal SuperArgus 2r PET system (SEDECAL, Madrid, Spain) or 7T PETMR Inline (Bruker, Rheinstetten, Germany; energy window, 350-650 keV; timing window, 6 ns). Images were acquired every 10 s for 12 images, 60 s for three images, 300 s for three images, or 600 s for […]. The anatomical structure of the brain was imaged using T2 MRI. The MRI sequences included 0.5 mm thick T2 Turbo RARE high-resolution images (TR = 3000 ms, TE, 46 ms, matrix, 512 × 256, average, 40, slice number, 30, field of view, 20 × 10 mm).
After determining the optimal imaging time point for [^18F]FBAT, we performed a blocking study using a selective iNOS inhibitor to assess the specificity of the tracer for iNOS. Separate 7T PET/MR studies with [^18F]FBAT were performed for mice (n = 6) administered a bolus of aminoguanidine (50 mg/kg i.p.) 30 min prior to administration of [^18F]FBAT. The time course of [^18F]FBAT radioactivity in the brain after administration of the iNOS inhibitor was assessed and compared to that of the mice in the LPS 3 h group.
Images were reconstructed by the Fourier rebinning algorithm and two-dimensional filtered back projection using a ramp filter with a cutoff at Nyquist. The regional radioactivity concentration (kBq/cc) of [^18F]FBAT was estimated from the mean pixel values within the region of interest (ROI) corresponding to MR images of various organs and regions of the brain. ROI for carotid artery, heart muscle, lung, liver, spleen, and kidney were defined and time activity curves (TACs) generated. TACs for whole brain, cortex, cerebellum, and brainstem were also determined as described above.
The concentration of radioactivity (kBq/cc, μCi/cc) was converted to standardized uptake value (SUV), and the mean and standard deviation (SD) of radiotracer accumulation values were calculated for different organs and regions of the brain. Data were analyzed with PMOD 4.0 software (PMOD Technologies Ltd., Zurich, Switzerland).

[1] = LPS 5 mg/kg, 3 h, 30 min post i.v. tracer
[2] = LPS 5 mg/kg, 24 h, 30 min post i.v. tracer
[3] = LPS 3 h + aminoguanidine 50 mg/kg pretreatment
[4] = control mice, 30 min post i.v. tracer

SUV, brainstem [1]: 0.98 ± 0.09 SUV and 0.976 ± 0.244^∗ SUV
SUV, cerebellum [1]: 0.60 ± 0.03 SUV and 0.600 ± 0.066^∗ SUV
SUV, cortex [1]: 0.90 ± 0.07 SUV and 0.904 ± 0.251^∗ SUV
SUV, brainstem [2]: 0.67 ± 0.07 SUV and 0.671 ± 0.148 SUV
SUV, cerebellum [2]: 0.54 ± 0.02 SUV and 0.542 ± 0.052 SUV
SUV, cortex [2]: 0.62 ± 0.02 SUV and 0.620 ± 0.041 SUV
SUV, whole brain [2]: 0.90 ± 0.13 SUV and 0.900 ± 0.270 SUV
SUV, brainstem [3]: 0.35 ± 0.10 SUV and 0.350 ± 0.055 SUV
SUV, cerebellum [3]: 0.31 ± 0.09 SUV and 0.310 ± 0.037 SUV
SUV, cortex [3]: 0.32 ± 0.09 SUV and 0.320 ± 0.063 SUV
SUV, whole brain [3]: 0.31 ± 0.08 SUV and 0.312 ± 0.055 SUV
SUR (SUVLPS to SUVcon), brainstem (LPS 24 h): 1.273 ± 0.163
SUR (SUVLPS to SUVcon), cerebellum (LPS 24 h): 1.233 ± 0.112
SUR (SUVLPS to SUVcon), cortex (LPS 24 h): 0.970 ± 0.303
SUR (SUVLPS to SUVcon), whole brain (LPS 24 h): 1.351 ± 0.451
SUR (SUV ratio to control), brainstem (control mice): 1.000
SUR (SUV ratio to control), cerebellum (control mice): 1.000
SUR (SUV ratio to control), cortex (control mice): 1.000
SUR (SUV ratio to control), whole brain (control mice): 1.000
SUV, brainstem [4]: 0.540 ± 0.153 SUV
SUV, cerebellum [4]: 0.448 ± 0.115 SUV
SUV, cortex [4]: 0.604 ± 0.150 SUV
SUV, whole brain [4]: 0.709 ± 0.200 SUV
AUC0-30min, 3 h LPS group vs control group (whole brain, average): 1.9 ± 0.21 fold
SMILES: NC1=NC2(CCN(C(=O)c3ccc([18F])cc3)CC2)Nc2c(F)ccc(F)c21 [[^18F]FBAT, (4′-amino-5′,8′-difluoro-1′H-spiro[piperidine-4,2′-quinazolin]-1-yl)(4-[^18F]fluorophenyl)methanone]
SUV, whole brain [1]: 1.43 ± 0.11 SUV and 1.428 ± 0.410^∗∗∗ SUV

Source: article PMC8328489, “Automated Synthesis and Initial Evaluation of (4′-Amino-5′,8′-difluoro-1′H-spiro[piperidine-4,2′-quinazolin]-1-yl)(4-[^18F]fluorophenyl)methanone for PET/MR Imaging of Inducible Nitric Oxide Synthase” (Molecular Imaging, 2021)
